Our source for the IC50 values is patent US7501430B2 (ArQule, Inc., priority 2006, dated 2009).

The structures appear in SMILES notation. Where only a bound is given, the exact number is not on record here.

Assay [1] has as its system SK-MEL-28 human melanoma cell line (B-RAF V600E). The experiment in a line: MTS cell growth assay, SK-MEL-28. It counts as cell-based. Conditions: SKMEL28 cells, 72 hours. The text has this:
(§1) Compounds of the present invention have been tested for activity against a variety of cancer cell lines. The ability of compounds to inhibit cell growth in this assay is correlated with the reduction of dehydrogenase enzyme activity found in metabolically active cells.
(§2) Materials: A375 (a human melanoma cell line that harbors the B-RAF mutation V600E), Colo-205 (a human colon cancer cell line that harbors the B-RAF mutation V600E), DLD1 (a human colon cancer cell line that harbors the K-ras mutation G13D), SK-MEL-2 (a human melanoma cell line that harbors the N-ras mutation Q61R), SK-MEL-28 (a human melanoma cell line that harbors the B-RAF mutation V600E), and SW480 (a human colon cancer cell line that harbors the K-ras mutation G12V) cells from ATCC were maintained at 37° C., 5% CO2 in DMEM media supplemented with 10% fetal bovine serum, penicillin/streptomycin and fungizone (Invitrogen). NCM460 (Incell), a normal colon epithelial cell line, and human mammary epithelial cells (Cambrex) were maintained at 37° C., 5% CO2 in DMEM and HEBM media (Cambrex), respectively.
(§3) Methods: Test compounds were dissolved and diluted to 300× in DMSO then diluted 1:40 in DMEM. Cells were seeded into 96-well tissue culture plates at 2-5×10^3 per well and cultured at 37° C. for 24 h. Cells were incubated with test compounds for 72 hours followed by incubation with tetrazolium compound (3-(4,5-dimethylthiazol-2-yl)-5-(3-carboxymethoxyphenyl)-2-(4-sulfophenyl)-2H-tetrazolium, inner salt; MTS) and the electron coupling reagent, phenazine methosulfate (PMS) for 4 hr. […] The measurement of the absorbance of the formazan was assessed using an ENVISION™ (Perkin Elmer) microplate reader at 492 nm. The calculated IC50 value is the concentration of the test compound that causes a 50% decrease in the absorbance.
Background: Tetrazolium assays rely on reduction of a dye to a coloured formazan, in cell work by metabolically active cells.

The subject of assay [2] is SW480 human colon cancer cell line (K-ras G12V). The assay can be described thus: MTS cell growth assay, SW480. It counts as cell-based. Conditions: SW480 cells, 72 hours, read-out: IC50 SW480 KRAS (G12V).
Text: as §1, §2, §3

The subject of assay [3] is A375 human melanoma cell line (B-RAF V600E). The assay can be described thus: MTS cell growth assay, A375. Format: cell-based. Conditions: A-375, A375 cells, 72 hours.
Text: as §1, §2, §3

Assay [4] has as its system SK-MEL-2 human melanoma cell line (N-ras Q61R). The experiment in a line: MTS cell growth assay, SK-MEL-2. It counts as cell-based. The conditions noted are these: SKMEL2 cells, 72 hours, read-out: IC50 SKMEL2 NRAS (Q61R).
Text: as §1, §2, §3

Assay [5] relates to NCM460 normal colon epithelial cell line. The experiment in a line: MTS cell growth assay, NCM460. The conditions noted are these: Homo sapiens, NCM460 normal cells, 72 hours. Format: cell-based.
Text: as §1, §2, §3

Assay [6] deals with T1, mutant B-RAF (Homo sapiens, UniProt P15056, V600E).
T1 construct: purchased Upstate (Charlottesville, Va.)
T1 sequence (P15056 whole entry V600E): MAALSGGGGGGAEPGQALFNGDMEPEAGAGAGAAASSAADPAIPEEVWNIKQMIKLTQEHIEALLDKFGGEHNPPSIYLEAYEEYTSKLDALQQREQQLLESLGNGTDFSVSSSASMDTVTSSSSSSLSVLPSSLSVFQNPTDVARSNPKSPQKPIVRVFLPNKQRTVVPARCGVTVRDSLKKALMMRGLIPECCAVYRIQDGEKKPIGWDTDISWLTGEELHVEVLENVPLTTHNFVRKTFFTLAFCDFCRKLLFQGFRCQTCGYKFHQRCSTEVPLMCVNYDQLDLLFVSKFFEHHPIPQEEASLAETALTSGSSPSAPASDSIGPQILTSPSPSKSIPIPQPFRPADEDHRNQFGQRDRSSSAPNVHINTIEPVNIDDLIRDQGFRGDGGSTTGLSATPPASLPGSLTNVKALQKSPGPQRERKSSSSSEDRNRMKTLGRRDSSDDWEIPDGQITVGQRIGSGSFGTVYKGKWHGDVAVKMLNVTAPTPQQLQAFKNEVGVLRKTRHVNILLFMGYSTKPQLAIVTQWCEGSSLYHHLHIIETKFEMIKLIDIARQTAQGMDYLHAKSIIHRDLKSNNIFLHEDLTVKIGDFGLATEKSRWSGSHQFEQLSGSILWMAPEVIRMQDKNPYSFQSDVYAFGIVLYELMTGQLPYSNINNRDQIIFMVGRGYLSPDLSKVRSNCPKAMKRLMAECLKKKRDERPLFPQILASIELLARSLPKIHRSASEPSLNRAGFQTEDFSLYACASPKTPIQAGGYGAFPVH
The assay can be described thus: RAF biochemical assay (MEK-1 phosphorylation, anti-phospho MEK1/2 detection). The conditions noted are these: read-out: Mutant B-RAF IC50. An outline of the steps: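 Detection is by ELISA: after a 30 min room-temperature reaction, plate-captured GST-MEK-1 is probed with anti-phospho MEK1/2, then an AP-tagged secondary antibody with fluorescent Attophos read-out.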

Assay [7] relates to human mammary epithelial cells (HMEC, normal). The assay can be described thus: MTS cell growth assay, HMEC. It counts as cell-based. The conditions noted are these: 72 hours.
Text: as §1, §2, §3

Assay [8] concerns DLD1 human colon cancer cell line (K-ras G13D). The experiment in a line: MTS cell growth assay, DLD1. Format: cell-based. Conditions: DLD-1, DLD1 cells, 72 hours, read-out: IC50 DLD1 KRAS (G13D).
Text: as §1, §2, §3

Assay [9] deals with Colo-205 human colon cancer cell line (B-RAF V600E). The assay can be described thus: MTS cell growth assay, Colo-205. It counts as cell-based. Conditions: Colo205 cells, 72 hours.
Text: as §1, §2, §3

On to `COc1ccccc1-c1nc2sccn2c1-c1ccnc(N[C@@H]2CCCN(S(=O)(=O)c3ccc(Cl)cc3)C2)n1` [Example 105, N-{(3R)-1-[(4-chlorophenyl)sulfonyl]piperidin-3-yl}-4-[6-(2-methoxyphenyl)imidazo[2,1-b][1,3]thiazol-5-yl]pyrimidin-2-amine], for which the IC50 in [1] is 480 nM; in [2], 1280 nM; in [3] it was 310 nM; in assay [4], 1100 nM; in assay [5] it was 6680 nM; in [6], 250 nM. Also, the IC50 in assay [7] was 2720 nM; in assay [8] it was 4730 nM; in [9], 380 nM.

Consider `COc1cccc(-c2nc3sccn3c2-c2ccnc(N[C@@H]3CCCN(C(=O)c4ccncc4)C3)n2)c1` [Example 112, N-[(3R)-1-isonicotinoylpiper-idin-3-yl]-4-[6-(3-methoxyphenyl)imidazo[2,1-b][1,3]thiazol-5-yl]pyrimidin-2-amine], for which the IC50 in assay [1] is 860 nM; in assay [2], 2740 nM; in assay [3], 270 nM; in [4], 910 nM; in assay [5], 4710 nM; in assay [6], more than 5000 nM. The IC50 in [7] amounted to 2240 nM; in assay [8] it was 3330 nM; in [9], 330 nM.

In the case of `O=S(=O)(c1ccc(Cl)cc1)N1CCC(Nc2nccc(-c3c(-c4cccc(O)c4)nc4sccn34)n2)CC1` [Example 267, 3-{5-[2-({1-[(4-chlorophenyl)sulfonyl]piperidin-4-yl}amino)pyrimidin-4-yl]imidazo[2,1-b][1,3]thiazol-6-yl}phenol], the IC50 came out at 380 nM in assay [1]; 2130 nM in assay [2]; 270 nM in assay [3]; 870 nM in [4]; 2050 nM in [5]; 31 nM in assay [6]. In addition, the IC50 is 1070 nM in [7], 1760 nM in [8] and 190 nM in [9].

`CCNC(=O)N1CCC(Nc2nccc(-c3c(-c4cccc(O)c4)nc4sccn34)n2)CC1` [Example 268, N-ethyl-4-({4-[6-(3-hydroxyphenyl)imidazo[2,1-b][1,3]thiazol-5-yl]pyrimidin-2-yl}amino)piperidine-1-carboxamide]: the IC50 was found to be 800 nM in assay [1]; 4400 nM in [2]; 370 nM in assay [3]; 1330 nM in [4]; 2540 nM in assay [5]; 9 nM in [6]. Also, the IC50 stood at 720 nM in [7], 4030 nM in assay [8] and 360 nM in assay [9].

For `O=C(c1ccc(F)cc1)N1CCC(Nc2nccc(-c3c(-c4ccc(F)cc4)nc4sccn34)n2)CC1` [Example 289, N-[1-(4-fluorobenzoyl)piperidin-4-yl]-4-[6-(4-fluorophenyl)imidazo[2,1-b][1,3]thiazol-5-yl]pyrimidin-2-amine], the IC50 is 670 nM in [1]; 2970 nM in assay [2]; 150 nM in assay [3]; 990 nM in assay [4]; 4170 nM in assay [5]; more than 10000 nM in assay [6]. Further, the IC50 in [7] came to 1240 nM; in assay [8], 3080 nM; in [9], 180 nM.

What is called IC50 is the concentration that gives 50% inhibition.
